In general, pIC50 refers to the negative decadic logarithm of the IC50, by convention in mol/L. A higher pIC50 goes with a low IC50. As a reminder, the Papp A→B is the apparent permeability from the apical to the basolateral side of a cell layer. For orientation: inhibition means the relative decrease from the control value, in per cent. Broadly, the MRT last is a mean duration of stay, worked out from the concentration-time curve. As usually defined, the MRT inf is a mean duration of stay, worked out from the concentration-time curve. For orientation: clearance means the rate of elimination divided by the concentration. Low readings indicate inefficient removal, high ones efficient removal.

This note sets out measurements from ChEMBL document CHEMBL5550204, “Discovery of ZJCK-6-46: A Potent, Selective, and Orally Available Dual-Specificity Tyrosine Phosphorylation-Regulated Kinase 1A Inhibitor for the Treatment of Alzheimer's Disease” (J Med Chem, 2024).

In one series the target is CDK9/cyclin T1 (Homo sapiens, UniProt P50750). The series can be described thus: Inhibition of CDK9/Cyclin T1 (unknown origin) preincubated with enzyme for 10 mins followed by substrate and ATP addition measured after 60 mins by ADP-Glo reagent based assay. The format is protein-complex assay. (In general: In ADP-Glo the light output rises with the ADP produced.)
The nature of series [1]: Apparent permeability across apical to basolateral side in dog MDCK-MDR1 cells at 5 uM incubated for 90 mins by LC-MS/MS analysis. The format is ADME, cell-based, Canis lupus familiaris.
In the next series the target is CYP2D6 (Homo sapiens, UniProt P10635). The series can be described thus: Inhibition of CYP2D6 in human liver microsomes using dextromethorphan as substrate at 10 uM preincubated for 10 mins followed by NADPH addition and measured after 40 mins by LC-MS/MS analysis relative to control. Conditions: probe dextromethorphan, time 50 min. The format is ADME, Microsome.

Series [2] is described as follows: MRT (0 to t) in Sprague-Dawley rat at 10 mg/kg,po measured upto 24 hrs by LC-MS/MS analysis. Type of series: ADME, organism-based. Conditions: in vivo.
Series [3] is described as follows: MRT (0 to infinity) in Sprague-Dawley rat at 10 mg/kg,po measured upto 24 hrs by LC-MS/MS analysis. Type of series: ADME, organism-based. As to conditions: in vivo.
Series [4] can be described thus: Clearance in Sprague-Dawley rat at 2 mg/kg,iv measured upto 24 hrs by LC-MS/MS analysis. The format is ADME, organism-based. As to conditions: in vivo.
Series [5] is described as follows: Drug concentration in Sprague-Dawley rat plasma at 10 mg/kg,po measured after 2 hrs by LC-MS/MS analysis. The format is ADME, organism-based.
A short description of series [6]: Drug concentration in Sprague-Dawley rat plasma at 10 mg/kg,po measured after 4 hrs by LC-MS/MS analysis. Type of series: ADME, organism-based.
The target of series [7] is Dual specificity tyrosine-phosphorylation-regulated kinase 3 (Homo sapiens, UniProt O43781). The series is described as follows: Inhibition of DYRK3 (unknown origin) preincubated with enzyme for 10 mins followed by substrate and ATP addition measured after 60 mins by ADP-Glo reagent based assay.
Series [8] concerns the target Dual specificity tyrosine-phosphorylation-regulated kinase 4 (Homo sapiens, UniProt Q9NR20). The series is described as follows: Inhibition of DYRK4 (unknown origin) preincubated with enzyme for 10 mins followed by substrate and ATP addition measured after 60 mins by ADP-Glo reagent based assay.
Series [9] has as its target T1, Dual specificity protein kinase CLK3 (Homo sapiens, UniProt P49761). The series can be described thus: Inhibition of CLK3 (unknown origin) preincubated with enzyme for 10 mins followed by substrate and ATP addition measured after 60 mins by ADP-Glo reagent based assay.
Target sequence in this assay (P49761 whole entry): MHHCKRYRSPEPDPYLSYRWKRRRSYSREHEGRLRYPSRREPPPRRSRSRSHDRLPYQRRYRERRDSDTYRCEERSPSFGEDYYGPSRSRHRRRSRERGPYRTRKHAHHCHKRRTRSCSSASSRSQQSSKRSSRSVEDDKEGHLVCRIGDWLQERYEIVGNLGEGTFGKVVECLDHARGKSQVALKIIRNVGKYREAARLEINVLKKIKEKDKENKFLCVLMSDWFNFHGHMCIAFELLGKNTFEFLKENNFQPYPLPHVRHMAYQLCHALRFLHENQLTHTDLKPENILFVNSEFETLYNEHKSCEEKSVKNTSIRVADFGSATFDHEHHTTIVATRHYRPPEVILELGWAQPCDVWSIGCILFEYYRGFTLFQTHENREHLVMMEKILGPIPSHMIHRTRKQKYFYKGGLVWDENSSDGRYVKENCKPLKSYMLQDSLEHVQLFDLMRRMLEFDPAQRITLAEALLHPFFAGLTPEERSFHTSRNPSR
Series [10] has as its target Dual specificity tyrosine-phosphorylation-regulated kinase 1B (Homo sapiens, UniProt Q9Y463). The series can be described thus: Inhibition of DYRK1B (unknown origin) at 1 uM preincubated with enzyme for 10 mins followed by substrate and ATP addition measured after 60 mins by ADP-Glo reagent based assay relative to control. As to conditions: time 70.0 min.
Series [11] has as its target T1, Dual specificity protein kinase CLK3. The series is described as follows: Inhibition of CLK3 (unknown origin) at 1 uM preincubated with enzyme for 10 mins followed by substrate and ATP addition measured after 60 mins by ADP-Glo reagent based assay relative to control. Conditions: time 70.0 min.
Target sequence in this assay (P49761 whole entry, looked up): as the sequence (P49761 whole entry) above
The target in series [12] is Dual specificity protein kinase CLK4 (Homo sapiens, UniProt Q9HAZ1). The series is described as follows: Inhibition of CLK4 (unknown origin) at 1 uM preincubated with enzyme for 10 mins followed by substrate and ATP addition measured after 60 mins by ADP-Glo reagent based assay relative to control. Conditions: time 70.0 min.
The nature of series [13]: Acute toxicity in C57BL/6 mouse assessed as change in heart weight at 500 mg/kg,po observed after 14 days. The format is organism-based. As to conditions: in vivo, 336 h, time 14 day.
Series [14] in a line: Acute toxicity in C57BL/6 mouse assessed as change in lung weight at 500 mg/kg,po observed after 14 days. The format is organism-based. Conditions: in vivo, 336 h, time 14 day.
Series [15] can be described thus: Acute toxicity in C57BL/6 mouse assessed as histopathological change in liver at 500 mg/kg,po observed after 14 days by hematoxylin-eosin staining based analysis. The format is organism-based. As to conditions: in vivo, 336 h, time 14 day.
Series [16] concerns Mus musculus. The series is described as follows: Antialzheimer activity in okadaic acid-induced cognitive impairment C57BL/6 mouse assessed as downregulation of Tau phosphorylation at Thr212 residue in hippocampus at 10 to 30 mg/kg,po once daily for 2 weeks by ELISA. Type of series: functional, organism-based. Conditions: dose 10-30 mg/kg. On the technique in general: In an ELISA, binding on a coated surface is turned into a signal by an enzyme label.

Series [17] concerns Mus musculus. The series is described as follows: Antialzheimer activity in okadaic acid-induced cognitive impairment C57BL/6 mouse assessed as downregulation of Tau phosphorylation at Thr212 residue in hippocampal CA1 region at 10 to 30 mg/kg,po once daily for 2 weeks by immunohistochemical staining analysis. Type of series: functional, organism-based. As to conditions: dose 10-30 mg/kg.

Series [18] has as its system Mus musculus. The series is described as follows: Antialzheimer activity in okadaic acid-induced cognitive impairment C57BL/6 mouse assessed as downregulation of Tau phosphorylation at Thr212 residue in hippocampal DG region at 10 to 30 mg/kg,po once daily for 2 weeks by immunohistochemical staining analysis. The format is functional, organism-based. As to conditions: dose 10-30 mg/kg.

A short description of series [19]: Toxicity in okadaic acid-induced cognitive impairment C57BL/6 mouse assessed as change in serum AST level at 10 to 30 mg/kg,po once daily for 2 weeks. Type of series: organism-based. As to conditions: in vivo, 336 h, dose 10-30 mg/kg.
The nature of series [20]: Toxicity in okadaic acid-induced cognitive impairment C57BL/6 mouse assessed as change in serum ALT level at 10 to 30 mg/kg,po once daily for 2 weeks. Type of series: organism-based. Conditions: in vivo, 336 h, dose 10-30 mg/kg.

pIC50: −log10 of the molar value. Active and inactive are the calls of the source. The rule behind the calls is not given here.

Sequence of Dual specificity tyrosine-phosphorylation-regulated kinase 1B (Q9Y463 whole entry, looked up): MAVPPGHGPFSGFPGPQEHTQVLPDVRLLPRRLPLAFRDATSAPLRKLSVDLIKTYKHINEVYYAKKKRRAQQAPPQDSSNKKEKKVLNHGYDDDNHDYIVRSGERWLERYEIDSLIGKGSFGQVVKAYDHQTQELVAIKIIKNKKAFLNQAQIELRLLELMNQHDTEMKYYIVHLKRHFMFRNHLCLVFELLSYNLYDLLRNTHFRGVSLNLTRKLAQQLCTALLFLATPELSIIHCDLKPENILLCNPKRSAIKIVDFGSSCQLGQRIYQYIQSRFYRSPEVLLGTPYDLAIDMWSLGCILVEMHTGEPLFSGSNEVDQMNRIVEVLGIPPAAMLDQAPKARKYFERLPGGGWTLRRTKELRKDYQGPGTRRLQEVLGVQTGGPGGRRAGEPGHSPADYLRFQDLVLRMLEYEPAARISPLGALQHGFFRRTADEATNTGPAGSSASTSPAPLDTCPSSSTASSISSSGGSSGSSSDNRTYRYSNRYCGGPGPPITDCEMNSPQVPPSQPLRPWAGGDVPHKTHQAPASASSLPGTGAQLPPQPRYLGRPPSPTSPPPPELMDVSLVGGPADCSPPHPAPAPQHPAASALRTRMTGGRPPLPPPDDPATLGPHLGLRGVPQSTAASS
Sequence of CDK9/cyclin T1 (O60563 whole entry): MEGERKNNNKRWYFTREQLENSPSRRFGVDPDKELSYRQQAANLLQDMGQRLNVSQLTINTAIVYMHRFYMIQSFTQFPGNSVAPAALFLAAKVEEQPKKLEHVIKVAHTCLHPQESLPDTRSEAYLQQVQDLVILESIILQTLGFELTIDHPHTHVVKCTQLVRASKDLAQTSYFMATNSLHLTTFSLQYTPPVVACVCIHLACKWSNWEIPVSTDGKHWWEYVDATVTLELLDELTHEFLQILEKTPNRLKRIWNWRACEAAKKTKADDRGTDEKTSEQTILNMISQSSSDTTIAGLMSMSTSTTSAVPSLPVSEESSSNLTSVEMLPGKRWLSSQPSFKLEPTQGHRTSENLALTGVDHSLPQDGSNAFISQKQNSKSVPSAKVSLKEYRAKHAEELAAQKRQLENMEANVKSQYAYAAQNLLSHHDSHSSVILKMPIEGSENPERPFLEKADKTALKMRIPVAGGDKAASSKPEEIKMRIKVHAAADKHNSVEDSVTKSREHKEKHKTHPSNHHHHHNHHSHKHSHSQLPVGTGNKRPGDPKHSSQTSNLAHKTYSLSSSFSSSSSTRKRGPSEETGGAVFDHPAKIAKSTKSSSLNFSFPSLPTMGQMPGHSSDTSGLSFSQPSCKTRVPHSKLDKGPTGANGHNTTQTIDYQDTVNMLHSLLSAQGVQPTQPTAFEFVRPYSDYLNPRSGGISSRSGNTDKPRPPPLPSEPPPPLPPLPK
Sequence of CDK9/cyclin T1 (P50750 whole entry): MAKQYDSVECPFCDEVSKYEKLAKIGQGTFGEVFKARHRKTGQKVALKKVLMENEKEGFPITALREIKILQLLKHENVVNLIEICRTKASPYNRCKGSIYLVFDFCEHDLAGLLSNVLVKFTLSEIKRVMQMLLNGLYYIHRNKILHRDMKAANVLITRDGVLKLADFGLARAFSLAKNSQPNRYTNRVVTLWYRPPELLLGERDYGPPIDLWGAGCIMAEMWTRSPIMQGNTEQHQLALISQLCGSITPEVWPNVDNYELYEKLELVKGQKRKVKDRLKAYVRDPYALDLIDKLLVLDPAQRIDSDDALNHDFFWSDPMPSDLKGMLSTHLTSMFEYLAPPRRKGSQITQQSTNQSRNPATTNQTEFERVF
Sequence of CYP2D6 (P10635 whole entry): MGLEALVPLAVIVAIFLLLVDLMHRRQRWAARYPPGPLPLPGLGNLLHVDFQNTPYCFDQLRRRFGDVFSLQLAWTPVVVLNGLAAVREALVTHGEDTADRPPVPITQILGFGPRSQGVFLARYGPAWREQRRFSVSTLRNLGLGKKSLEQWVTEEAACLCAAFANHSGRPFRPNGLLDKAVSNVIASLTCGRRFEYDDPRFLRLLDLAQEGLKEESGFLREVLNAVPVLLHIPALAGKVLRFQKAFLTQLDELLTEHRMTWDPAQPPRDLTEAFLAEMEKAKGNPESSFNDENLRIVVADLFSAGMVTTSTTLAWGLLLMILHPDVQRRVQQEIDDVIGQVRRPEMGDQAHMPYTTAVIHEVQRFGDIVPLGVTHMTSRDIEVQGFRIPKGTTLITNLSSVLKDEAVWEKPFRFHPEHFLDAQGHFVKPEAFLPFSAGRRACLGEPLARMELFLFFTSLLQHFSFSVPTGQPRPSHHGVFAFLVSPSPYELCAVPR
Sequence of Dual specificity protein kinase CLK4 (Q9HAZ1 whole entry, looked up): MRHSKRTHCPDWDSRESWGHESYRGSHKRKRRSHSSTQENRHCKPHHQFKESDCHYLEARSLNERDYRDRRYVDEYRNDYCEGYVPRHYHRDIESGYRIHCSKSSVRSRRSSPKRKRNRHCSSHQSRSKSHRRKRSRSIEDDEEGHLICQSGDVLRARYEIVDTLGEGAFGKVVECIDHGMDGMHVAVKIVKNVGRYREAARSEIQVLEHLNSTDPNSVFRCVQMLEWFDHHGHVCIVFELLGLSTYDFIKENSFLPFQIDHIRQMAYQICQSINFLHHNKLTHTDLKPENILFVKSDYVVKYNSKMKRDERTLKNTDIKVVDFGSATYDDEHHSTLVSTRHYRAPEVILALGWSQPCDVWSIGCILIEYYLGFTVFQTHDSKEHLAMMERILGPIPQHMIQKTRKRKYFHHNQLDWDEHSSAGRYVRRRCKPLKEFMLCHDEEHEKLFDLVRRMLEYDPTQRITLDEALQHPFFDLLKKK
Sequence of Dual specificity tyrosine-phosphorylation-regulated kinase 3 (O43781 whole entry): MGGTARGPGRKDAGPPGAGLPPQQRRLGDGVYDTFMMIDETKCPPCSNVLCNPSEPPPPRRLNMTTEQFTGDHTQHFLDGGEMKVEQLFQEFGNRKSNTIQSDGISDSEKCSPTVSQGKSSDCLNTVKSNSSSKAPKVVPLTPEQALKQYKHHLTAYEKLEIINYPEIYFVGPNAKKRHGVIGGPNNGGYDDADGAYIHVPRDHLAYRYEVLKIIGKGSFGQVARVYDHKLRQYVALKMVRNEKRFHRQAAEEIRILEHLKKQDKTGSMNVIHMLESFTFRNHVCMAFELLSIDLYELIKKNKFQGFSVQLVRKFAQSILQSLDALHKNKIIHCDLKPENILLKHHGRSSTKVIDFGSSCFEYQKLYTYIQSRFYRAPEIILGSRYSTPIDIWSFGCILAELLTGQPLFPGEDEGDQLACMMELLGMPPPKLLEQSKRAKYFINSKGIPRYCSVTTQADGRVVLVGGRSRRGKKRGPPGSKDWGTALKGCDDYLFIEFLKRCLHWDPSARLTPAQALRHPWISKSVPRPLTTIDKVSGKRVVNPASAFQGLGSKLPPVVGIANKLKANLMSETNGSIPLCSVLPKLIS
Sequence of Dual specificity tyrosine-phosphorylation-regulated kinase 4 (Q9NR20 whole entry): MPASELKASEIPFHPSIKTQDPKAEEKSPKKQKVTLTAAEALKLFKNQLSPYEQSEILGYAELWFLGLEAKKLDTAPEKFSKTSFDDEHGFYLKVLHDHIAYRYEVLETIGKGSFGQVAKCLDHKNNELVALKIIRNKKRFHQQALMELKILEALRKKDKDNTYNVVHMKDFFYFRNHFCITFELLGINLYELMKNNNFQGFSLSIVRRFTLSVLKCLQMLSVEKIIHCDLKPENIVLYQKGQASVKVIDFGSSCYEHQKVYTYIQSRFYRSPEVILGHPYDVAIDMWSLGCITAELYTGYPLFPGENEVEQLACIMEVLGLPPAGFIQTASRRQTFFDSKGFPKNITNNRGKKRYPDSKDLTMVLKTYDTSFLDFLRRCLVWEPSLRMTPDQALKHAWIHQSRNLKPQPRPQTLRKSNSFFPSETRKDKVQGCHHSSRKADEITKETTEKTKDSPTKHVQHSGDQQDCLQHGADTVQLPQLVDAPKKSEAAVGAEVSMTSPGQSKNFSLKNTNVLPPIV

For the molecule `Cc1ccc2c(-c3ccc4ncnc(N[C@H](CO)c5ccccc5)c4c3)c[nH]c2n1`, the pIC50 at CDK9/cyclin T1 is less than 5.00; in [7], 7.76; in [8] it was 6.40; in series [9], 7.41. Besides, the Papp A→B at […], 5 µM in [1] turned out to be 2.67 ×10⁻⁶ cm/s. In addition, at CYP2D6, the inhibition at 40 min, 10 µM came out at 65.8%. In series [2], this molecule gave a mean residence time (MRT last) at 24 h of 5.77 h. The MRT inf in series [3] turned out to be 5.98 h. Moreover, the clearance in series [4] is 23.7 mL/min/kg. The concentration at 2 h in series [5] is 141 ng/mL. The concentration at 4 h in series [6] was 254 ng/mL. Moreover, the inhibition turned out to be 100% in [10], 113% in series [11] and 100% in series [12]. For the same molecule, the Activity result in series [13], in [14], in series [15], in series [19] and in series [20] was “Non-Toxic” in each case. The outcome in the series on Mus musculus [16], with Mus musculus [17] and in the series on Mus musculus [18] was Active.
